This note sets out measurements from publication PMC3781034, “A Small-Animal Pharmacokinetic/Pharmacodynamic PET Study of Central Serotonin 1A Receptor Occupancy by a Potential Therapeutic Agent for Overactive Bladder” (PLoS ONE, 2013).

For series [1], the system named is P-glycoprotein. Description: Brain-to-plasma ratio in Mdr1a/1b-knockout vs wild-type mice. The format is in vivo. The following applies: rodents, BBB drug transporter; data not shown.
Series [2] deals with micturition interval. Nature of the series: Superior colliculus lesion (SCL) model, cystometry. Format: in vivo, female SD rats. How it is done: For lesioning of the brain to stimulate the micturition reflex, anesthesia was induced in female SD rats with 4% halothane and an N2O/O2 (2:1) gas mixture, it was maintained with 2% halothane, and each animal was mounted onto a stereotaxic apparatus. […] Catheter implantations and cystometric investigations were performed with the same methodologies as in the 5-HT1A receptor agonist-induced model. E2110 (0.1, 0.3 or 1 mg/kg) or vehicle was administered to four groups of eight conscious rats orally. The three micturition intervals were obtained and drug-induced changes in the micturition intervals were evaluated. In this assay, the post-administration micturition interval was defined as the average of the micturition intervals over an observation period between 0.5 and 1 hour after administration.
Data are expressed as mean ± standard error of mean (S.E.M). In the pharmacological study, the statistical significance of differences between the vehicle- and E2110-treated groups was tested using one-way analysis of variance (ANOVA) followed by Dunnett’s multiple comparison test. A probability (p) value of <0.05 (two-sided) was considered statistically significant. All statistical analyses were performed using the SAS software package version 8.1 or 8.2 (SAS Institute Japan Ltd., Tokyo, Japan).

In series [3] the target is T1, CYP3A4 (Homo sapiens, UniProt P08684).
T1 construct: from tissue; host or cells: human liver microsomes
T1 sequence (P08684 whole entry): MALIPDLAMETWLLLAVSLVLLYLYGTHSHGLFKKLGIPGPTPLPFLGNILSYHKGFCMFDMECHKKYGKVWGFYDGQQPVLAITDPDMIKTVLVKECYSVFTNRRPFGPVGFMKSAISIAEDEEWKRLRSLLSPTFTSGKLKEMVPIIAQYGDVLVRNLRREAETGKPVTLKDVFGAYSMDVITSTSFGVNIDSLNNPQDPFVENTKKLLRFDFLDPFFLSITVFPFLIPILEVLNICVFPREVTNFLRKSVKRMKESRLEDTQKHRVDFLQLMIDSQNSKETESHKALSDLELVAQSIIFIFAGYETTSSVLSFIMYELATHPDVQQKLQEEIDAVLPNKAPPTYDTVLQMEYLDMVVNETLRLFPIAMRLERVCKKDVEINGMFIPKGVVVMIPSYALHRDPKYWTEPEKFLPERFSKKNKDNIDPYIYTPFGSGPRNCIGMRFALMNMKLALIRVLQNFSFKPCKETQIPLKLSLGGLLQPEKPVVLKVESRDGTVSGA
Nature of the series: Metabolism in human liver microsomes. Format: in vitro ADME. The following applies: unpublished results.

Series [4] is described as follows: PK study in rats (oral). Format: in vivo. Conditions: Sprague-Dawley, rat, plasma, 1 mg/kg oral; for AUC(0-t): read-out: AUC0-8hr. Here is the method: E2110 was administered orally to male and female SD rats, (4 animals/sex) at a dose of 1 mg/kg. Blood samples were collected from the jugular veins by heparinized syringes at 0.25, 0.5, 1, 2, 4, 6, and 8 hours after dosing.
Concentrations of E2110 were determined in plasma or PBS by liquid chromatography - tandem mass spectrometry. Samples (5 µL) were injected into an L-column ODS (35 × 2.1 mm; 5 µM, Chemical Evaluation and Research Institute, Tokyo, Japan) with a flow rate of 0.6 mL/min. We used 0.1% formic acid in water and acetonitrile as mobile phase A and B, respectively. The gradient elution started with a gradient from 0% to 100% mobile phase B for 2 min, then 1 min of 100% B, followed by a gradient of 100% to 0% for 0.01 min at the end, at a flow rate of 0.6 ml/min. The mass spectrometer (Quattro Ultima-Pt; Micromass, Waters Ltd., Manchester, UK) was operated in a positive ion multiple reaction monitoring mode. E2110 was monitored using mass transitions of 490.4/459.2. Tamsulosin was used as an internal standard, and was monitored using a mass transition of 409.3/200.0. The lower limit of quantification of E2110 in plasma was 0.5 ng/mL.

Structures are written as SMILES. Read-outs that look alike come from different tables or passages of the source.

What is called Cmax is the peak of the concentration-time curve. One may read the Tmax as the time from dosing to the highest level. The term half-life denotes the time needed for the level to fall by half in the phase considered. Low values mean rapid decline, high ones slow decline. Consider `CNC(=O)c1ccc2ccn(C3CCN(CCc4c(OC)ccc5c4OC(C)(C)CC5=O)CC3)c2c1.O=C(O)/C=C/C(=O)O` [E2110, 1-{1-[2-(7-Methoxy-2,2-dimethyl-4-oxochroman-8-yl)ethyl]piperidine-4-yl}-N-methyl-1H-indole-6-carboxamide fumarate], for which the P-glycoprotein substrate status result in series [1] is recorded as “substrate for the BBB drug transporter P-glycoprotein”. Also, the “minimum dose exerting overt therapeutic effects on the micturition reflex” value in series [2] (SCL model, oral) is 0.3 mg/kg. In addition, the “effect on micturition interval” value in series [2] (oral 0.3-1 mg/kg, SCL female SD rats, 0.5-1 hour after administration) was “significantly (p < 0.05) prolonged the micturition intervals”. The metabolizing enzyme entry in series [3] was “primarily metabolized by CYP3A4”. Further, in series [4] (Female SD), the maximum concentration (Cmax) was 126 ng/mL, the time to peak (Tmax) was determined as 1 h, the half-life was 2.6 h and the AUC(0-t) was 488 ng·h/mL. Besides, in series [4] (Male SD), the highest level (Cmax) was 48.1 ng/mL, the time of peak concentration (Tmax) worked out at 0.5 h, the half-life is 1.5 h and the AUC(0-t) came to 71.8 ng·h/mL.
